# In US20220235032A1 (GENFLEET THERAPEUTICS (SHANGHAI) INC., priority 2019, published 2022):
# Columns and labels:
# [1] = molecular target: T1, RIPK1 enzyme (Homo sapiens, UniProt Q13546); assay: Inhibitory activity of the compounds against RIPK1 enzyme (P33-ATP, MBP substrate); format: biochemical; conditions: 36 nM RIPK1, substrate MBP, 10 mM magnesium ion, P33-labeled ATP, 2 h room temperature; read-out: RIPK1 enzyme inhibitory activety IC50
# T1 construct: purchased Eurofins 16-022
# T1 sequence (Q13546 1-671): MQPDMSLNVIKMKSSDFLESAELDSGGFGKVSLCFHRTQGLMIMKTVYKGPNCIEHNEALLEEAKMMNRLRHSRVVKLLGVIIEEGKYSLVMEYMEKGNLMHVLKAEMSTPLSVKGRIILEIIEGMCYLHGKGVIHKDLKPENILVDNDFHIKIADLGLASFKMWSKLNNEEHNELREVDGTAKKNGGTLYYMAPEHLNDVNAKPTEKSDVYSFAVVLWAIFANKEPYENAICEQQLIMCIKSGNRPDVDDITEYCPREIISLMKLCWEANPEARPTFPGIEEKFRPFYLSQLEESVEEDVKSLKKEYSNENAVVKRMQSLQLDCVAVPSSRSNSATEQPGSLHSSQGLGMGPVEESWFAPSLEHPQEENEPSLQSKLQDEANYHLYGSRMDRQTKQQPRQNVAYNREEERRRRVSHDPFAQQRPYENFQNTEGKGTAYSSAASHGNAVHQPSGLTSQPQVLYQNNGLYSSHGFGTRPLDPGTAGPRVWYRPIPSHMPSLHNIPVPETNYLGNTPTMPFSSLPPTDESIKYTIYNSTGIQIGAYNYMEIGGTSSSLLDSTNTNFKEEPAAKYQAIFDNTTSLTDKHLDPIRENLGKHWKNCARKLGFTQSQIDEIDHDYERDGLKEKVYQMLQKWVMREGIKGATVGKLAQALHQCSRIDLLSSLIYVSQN
# Protocol: The compound to be tested was dissolved in DMSO, and diluted in 3.16 folds with DMSO to a series of gradient concentrations. Then, the solution was diluted with MOPS buffer pH 7.0 to the final concentration. The resultant working solution was mixed with 36 nM RIPK1 (final concentration) and the substrate MBP homogeneously. Thereafter, 10 mM magnesium ion and P^33 isotopically labeled ATP were added for the reaction. After the reaction was carried out at room temperature for 2 h, phosphoric acid was added to terminate the reaction. The final reaction system was tested using a liquid scintillation counter after treatment. The […] for the tested result and a positive control group were converted to activity percentage. The activity percentage was plotted against the final concentration of respective compound using a 4-parameter fitting to obtain the inhibitory IC50 of the compound against RIPK1 enzyme.
# [2] = system: U937 cells; assay: Inhibitory activity against programmed necroptosis of U937 cells induced by TNF-α and Q-VD-Oph (CellTiter-Glo); format: cell-based; conditions: Celltiter-Glo survival rate
# Protocol: The U937 cell strain which was used in the following Testing Examples was derived from ATCC, No.: CRL-1593.2, batch No.: 63479999, culture medium: RPMI-1640+10% FBS.
# The compound to be tested was dissolved in DMSO, and diluted with DMSO to a series of gradient concentrations. The U937 cells were inoculated in a 384-well plate at 5000/well. The compound at respective concentration was added to each of the wells, and was mixed with the cells homogeneously. Human TNF-α and Q-VD-Oph were added simultaneously to induce programmed necroptosis of the cells. The cells were placed in the incubator at 37° C. and 5% CO2 for further culture of 48 h. Celltiter-Glo reagent was used for detection. After adequate pyrolysis reaction, the chemiluminescence readout value was recorded by a microplate reader. The survival rate was calculated from the detection results using the equation as follows: SR (%)=(RLU compound−RLU blank)/(RLU high control−RLU blank)×100%. The survival rate was plotted against the final concentration of respective compound using a 4-parameter fitting to calculate the inhibitory C50 of the compound against programmed necroptosis of cells induced by TNF-α.
# [3] = human TNF-α + Q-VD-Oph induced necroptosis, 48 h
compound,measurement,setting,value
"N#Cc1cc(N2CC3CC(C(=O)N4N=CCC4c4cc(F)cc(F)c4)CC3C2)ncn1 (stereo not drawn) [Compound Z-11, 6-(5-(5-(3,5-difluorophenyl)-4,5-dihydro-1H-pyrazole-1-carbonyl)hexahydrocyclopenta[C]pyrrol-2(1H)-yl)pyrimidine-4-carbonitrile]",IC50,[1],89 nM
same,IC50,"[2]; Homo sapiens, U-937, 48 h",138 nM
"N#Cc1cc(N2CC[C@H](C(=O)N3N=CC[C@H]3c3cncc(F)c3)C3(CC3)C2)ncn1 (single isomer, unassigned) [Compound Z-48-d]",IC50,[1],50 nM
same,IC50,"[2]; Homo sapiens, U-937, 48 h",7 nM
"N#Cc1cc(N2CCC(C(=O)N3N=CCC3c3cc(F)cc(F)c3)C3(CC3)C2)ncn1 (single isomer, unassigned) [Compound Z-25-2]",IC50,[1],42 nM
same,IC50,"[2]; Homo sapiens, U-937, 48 h",1 nM
"N#Cc1cc(N2CC3CC(C(=O)N4N=CCC4c4ccccc4)CC3C2)ncn1 (single isomer, unassigned) [Compound Z-9-1]",IC50,[1],29 nM
same,IC50,"[2]; Homo sapiens, U-937, 48 h",157 nM
"COc1cc(N2CC3CC(C(=O)N4N=CCC4c4ccccc4)CC3C2)ncn1 (stereo not drawn) [Compound Z-12, (2-(6-methoxypyrimidin-4-yl)octahydrocyclopenta[c]pyrrol-5-yl)(5-phenyl-4,5-dihydro-1H-pyrazol-1-yl) ketone]",IC50,[1],123 nM
"NC(=O)c1cc(N2CCC(C(=O)N3N=CCC3c3cncc(F)c3)CC23CC3)ncn1 (stereo not drawn) [Compound Z-67, 6-(7-(5-(5-fluoropyridin-3-yl)-4,5-dihydro-1H-pyrazole-1-carbonyl)-4-aza-spiro[2.5]oct-4-yl)pyrimidine-4-carboxamide]",IC50,"[2]; Homo sapiens, U-937, 48 h",115 nM
"Nc1nc(N2CC3CC(C(=O)N4N=CCC4c4cc(F)cc(F)c4)CC3C2)ncc1F (stereo not drawn) [Compound Z-23, (2-(4-amino-5-fluoropyrimidin-2-yl)octahydrocyclopenta[c]pyrrol-5-yl)(5-(3,5-difluorophenyl)-4,5-dihydro-1H-pyrazol-1-yl) ketone]",IC50,"[2]; Homo sapiens, U-937, 48 h",52 nM
"Nc1nc(N2CC3CC(C(=O)N4N=CCC4c4ccccc4)CC3C2)ncc1F (stereo not drawn) [Compound Z-14, (2-(4-amino-5-fluoropyrimidin-2-yl)octahydrocyclopenta[c]pyrrol-5-yl)(5-phenyl-4,5-dihydro-1H-pyrazol-1-yl) ketone]",IC50,"[2]; Homo sapiens, U-937, 48 h",165 nM
"NC(=O)c1ccnc(N2C[C@H]3C[C@H](C(=O)N4N=CC[C@@H]4c4cc(F)ccc4F)C[C@H]3C2)n1 (single isomer, unassigned) [Compound Z-22-2]",IC50,"[2]; Homo sapiens, U-937, 48 h",48 nM
"N#Cc1cc(N2C[C@H]3C[C@@H](C(=O)N4N=CC[C@@H]4c4cc(F)cc(F)c4)C[C@H]3C2)ncn1 (single isomer, unassigned) [Compound Z-38-4]",IC50,[2]; [3],82 nM
"COc1nccc(N2CC3CC(C(=O)N4N=CCC4c4ccccc4)CC3C2)n1 (stereo not drawn) [Compound Z-13, (2-(2-methoxypyrimidin-4-yl)octahydrocyclopenta[c]pyrrol-5-yl)(5-phenyl-4,5-dihydro-1H-pyrazol-1-yl) ketone]",IC50,[1],63 nM
same,IC50,"[2]; Homo sapiens, U-937, 48 h",146 nM
"NC(=O)c1ccnc(N2CCC(C(=O)N3N=CCC3c3cc(F)cc(F)c3)C3(CC3)C2)n1 (racemic) [Compound Z-46-1, 2-(8-(5-(3,5-difluorophenyl)-4,5-dihydro-1H-pyrazole-1-carbonyl)-5-aza-spiro[2.5]oct-5-yl)pyrimidine-4-carboxamide]",IC50,"[2]; Homo sapiens, U-937, 48 h",4 nM
"NC(=O)c1cc(N2CCC(C(=O)N3N=CCC3c3cc(F)cc(F)c3)CC23CC3)ncn1 (stereo not drawn) [Compound Z-66, 6-(7-(5-(3,5-difluorophenyl)-4,5-dihydro-1H-pyrazole-1-carbonyl)-4-aza-spiro[2.5]oct-4-yl)pyrimidine-4-carboxamide]",IC50,[2]; [3],20 nM
"NC(=O)c1cc(N2CC3CC(C(=O)N4N=CCC4c4cc(F)cc(F)c4)CC3C2)ncn1 (stereo not drawn) [Compound Z-17, 6-(5-(5-(3,5-difluorophenyl)-4,5-dihydro-1H-pyrazole-1-carbonyl)hexahydrocyclopenta[c]pyrrol-2(1H)-yl)pyrimidine-4-carboxamide]",IC50,"[2]; Homo sapiens, U-937, 48 h",248 nM
"NC(=O)c1ccnc(N2CC3CC(C(=O)N4N=CCC4c4cncc(F)c4)CC3C2)n1 (racemic) [Compound Z-34, 2-(5-(5-(5-fluoropyridin-3-yl)-4,5-dihydro-1H-pyrazole-1-carbonyl)hexahydrocyclopenta[c]pyrrol-2(1H)-yl)pyrimidine-4-carboxamide]",IC50,"[2]; Homo sapiens, U-937, 48 h",380 nM
NC(=O)c1cc(N2CC3CC(C(=O)N4N=CCC4c4ccccc4)CC3C2)ncn1 (stereo not drawn) [Compound Z-10],IC50,[1],95 nM
same,IC50,"[2]; Homo sapiens, U-937, 48 h",153 nM
"Cc1nnc(N2CCC(C(=O)N3N=CCC3c3cc(F)cc(F)c3)C3(CC3)C2)o1 (stereo not drawn) [Compound Z-63-a, (5-(3,5-difluorophenyl)-4,5-dihydro-1H-pyrazol-1-yl)(5-(5-methyl-1,3,4-oxadizol-2-yl)-5-aza-spiro[2.5]octane-8-yl) ketone]",IC50,[2]; [3],32 nM
"NC(=O)c1ccnc(N2CC3CC(C(=O)N4N=CCC4c4cc(F)cc(F)c4)CC3C2)n1 (stereo not drawn) [Compound Z-18, 2-(5-(5-(3,5-difluorophenyl)-4,5-dihydro-1H-pyrazole-1-carbonyl)hexahydrocyclopenta [c]pyrrol-2(1H)-yl)pyrimidine-4-carboxamide]",IC50,"[2]; Homo sapiens, U-937, 48 h",94 nM
"NC(=O)c1cc(N2CCC(C(=O)N3N=CCC3c3ccccc3)C3(CC3)C2)ncn1 (racemic) [Compound Z-43-2, 6-(8-(5-phenyl-4,5-dihydro-1H-pyrazole-1-carbonyl)-5-aza-spiro[2.5]oct-5-yl)pyrimidine-4-carboxamide]",IC50,"[2]; Homo sapiens, U-937, 48 h",45 nM
"NC(=O)c1cc(N2CCC(C(=O)N3N=CCC3c3cc(F)cc(F)c3)CC23CC3)ncn1 (stereo not drawn) [Compound Z-64-1, 6-(7-(5-(3,5-difluorophenyl)-4,5-dihydro-1H-pyrazole-1-carbonyl)-4-aza-spiro[2.5]oct-4-yl)pyrimidine-4-carboxamide]",IC50,[2]; [3],6 nM
"NC(=O)c1cc(N2CC3CC(C(=O)N4N=CCC4c4cc(F)ccc4F)CC3C2)ncn1 (stereo not drawn) [Compound Z-20, 6-(5-(5-(2,5-difluorophenyl)-4,5-dihydro-1H-pyrazole-1-carbonyl)hexahydrocyclopenta[c]pyrrol-2(1H)-yl)pyrimidine-4-carboxamide]",IC50,"[2]; Homo sapiens, U-937, 48 h",272 nM
"N#Cc1cc(N2CC[C@@H](C(=O)N3N=CC[C@@H]3c3cncc(F)c3)CC23CC3)ncn1 (single isomer, unassigned) [Compound Z-65-4]",IC50,"[2]; Homo sapiens, U-937, 48 h",14 nM
"N#Cc1cc(N2CC3CC(C(=O)N4N=CCC4c4ccccc4)CC3C2)ncn1 (stereo not drawn) [Compound Z-72, 6-(5-(5-phenyl-4,5-dihydro-1H-pyrazole-1-carbonyl)hexahydrocyclopenta[C]pyrrol-2(1H)-yl)pyrimidine-4-carbonitrile]",IC50,[1],168 nM
same,IC50,"[2]; Homo sapiens, U-937, 48 h",30 nM
"N#Cc1ccnc(N2CC3CC(C(=O)N4N=CCC4c4cc(F)cc(F)c4)CC3C2)n1 (stereo not drawn) [Compound Z-32, 2-(5-(5-(3,5-difluorophenyl)-4,5-dihydro-1H-pyrazole-1-carbonyl)hexahydrocyclopenta [c]pyrrol-2(1H)-yl)pyrimidine-4-carbonitrile]",IC50,"[2]; Homo sapiens, U-937, 48 h",60 nM
"N#Cc1cc(N2CC3CCC(C2)C3C(=O)N2N=CCC2c2ccccc2)ncn1 (single isomer, unassigned) [Compound Z-2, 6-(8-(5-phenyl-4,5-dihydro-1H-pyrazole-1-carbonyl)-3-azabicyclo[3.2.1]oct-3-yl)pyrimidine-4-carbonitrile]",IC50,[2]; [3],156 nM
"N#Cc1cc(N2C[C@H]3C[C@H](C(=O)N4N=CC[C@@H]4c4cc(F)cc(F)c4)C[C@H]3C2)ncn1 (single isomer, unassigned) [Compound Z-38-2]",IC50,[2]; [3],27 nM
